Consider 17 compounds from ChEMBL document CHEMBL5149974, “Antimicrobial drugs bearing guanidine moieties: A review” (Eur J Med Chem, 2021).

In general, IC50 refers to the point on the concentration scale where inhibition reaches its midpoint. Low values mean greater potency, high ones weaker potency. A word on the MIC: it is the lowest concentration that inhibits growth of the organism. A word on the ED50: it is the dose that gives a 50% effect, or the effect in half of the subjects.

Test [1] can be described thus: Inhibition of Mycobacterium smegmatis biofilm fromation incubated for 48 hrs by crystal violet staining based analysis. It counts as functional, Mycolicibacterium smegmatis.
For test [2], the system named is Escherichia coli. Briefly: Antibacterial activity against Escherichia coli CCUG assessed as growth inhibition incubated for 18 hrs by broth microdilution method. It counts as functional.
The test system of a further test is Klebsiella pneumoniae. Briefly: Antibacterial activity against Klebsiella pneumoniae ATCC 13833 assessed as growth inhibition incubated for 18 hrs by broth microdilution method. Type of test: functional. On the technique in general: In broth dilution the organism is exposed to a series of concentrations in liquid medium.
Another test deals with Pseudomonas aeruginosa. Briefly: Antibacterial activity against Pseudomonas aeruginosa ATCC 27853 assessed as growth inhibition incubated for 18 hrs by broth microdilution method. Type of test: functional.
The next test concerns Acinetobacter baumannii. Description: Antibacterial activity against Acinetobacter baumannii ATCC 17978 assessed as growth inhibition incubated for 18 hrs by broth microdilution method. It counts as functional.
In test [3] the test system is Staphylococcus epidermidis. Description: Antibacterial activity against Staphylococcus epidermidis ATCC 14990 assessed as growth inhibition incubated for 18 hrs by broth microdilution method. Type of test: functional.
A further test relates to Enterococcus faecalis. Briefly: Antibacterial activity against Enterococcus faecalis ATCC 29212 assessed as growth inhibition incubated for 18 hrs by broth microdilution method. It counts as functional.
For another test, the system named is Bacillus subtilis. Briefly: Antibacterial activity against Bacillus subtilis ATCC 6633 assessed as growth inhibition incubated for 18 hrs by broth microdilution method. Type of test: functional.
Test [4] has as its system Staphylococcus aureus. Description: Antibacterial activity against Staphylococcus aureus ATCC 25923 assessed as growth inhibition incubated for 18 hrs by broth microdilution method. It counts as functional.
Test [5] relates to Mycobacterium tuberculosis. Description: Anti-mycobacterial activity against Mycobacterium tuberculosis H37Rv assessed as bacterial growth inhibition incubated for 7 days by REMA assay. It counts as functional. To be noted: 168 h, time 7 day.
The test system of test [6] is Plasmodium vinckei petteri. Description: Antimalarial activity against Plasmodium vinckei petteri 279BY infected in Swiss mouse assessed as reduction in parasitemia administered intraperitoneally once daily for 4 consecutive days and measured on day 5. Type of test: functional. The note with it: 120 h, route ip, time 5 day.
For test [7], the system named is Plasmodium vinckei petteri. Briefly: Antimalarial activity against Plasmodium vinckei petteri 279BY infected in Swiss mouse assessed as reduction in parasitemia administered orally once daily for 4 consecutive days and measured on day 5. It counts as functional. The note with it: 120 h, route po, time 5 day.
The test system of test [8] is Mycobacterium tuberculosis. Briefly: Anti-mycobacterial activity against Mycobacterium tuberculosis H37Rv assessed as growth inhibition incubated for 48 hrs by alamar blue staining based analysis. Type of test: functional.
Test [9] concerns Staphylococcus aureus. Description: Antibacterial activity against Staphylococcus aureus assessed as bacterial growth inhibition incubated for 18 to 24 hrs by broth microdilution assay. Type of test: functional. To be noted: time 18-24 hrs.
The subject of test [10] is Staphylococcus aureus. Description: Antibacterial activity against Staphylococcus aureus assessed as bacterial growth inhibition incubated for 24 hrs. Type of test: functional.
For test [11], the system named is Mycobacterium tuberculosis. Description: Potentiation of isoniazid-induced antimycobacterial activity against Mycobacterium tuberculosis H37Rv assessed as reduction in isoniazid MIC at 250 uM incubated for 48 hrs by alamar blue staining based analysis. It counts as functional.
For test [12], the system named is Mycobacterium tuberculosis. Description: Potentiation of isoniazid-induced antimycobacterial activity against Mycobacterium tuberculosis H37Rv assessed as reduction in isoniazid MIC at 125 uM incubated for 48 hrs by alamar blue staining based analysis. Type of test: functional. A general note: The colour change of resazurin is a common sign of viable cells or microbes.

Test [13] has as its system Staphylococcus aureus. Briefly: Potentiation of Norfloxacin-induced antibacterial activity against Staphylococcus aureus 1199B overexpressing NorA efflux pump assessed as fold reduction in norfloxacin MIC by microdilution method. It counts as functional.
Test [14] has as its system Staphylococcus aureus. Briefly: Potentiation of ethidium bromide-induced antibacterial activity against Staphylococcus aureus 1199B overexpressing NorA efflux pump assessed as fold reduction in ethidium bromide MIC by microdilution method. It counts as functional.
For test [15], the system named is Mycobacterium tuberculosis. Briefly: Anti-mycobacterial activity against Mycobacterium tuberculosis H37Rv ATCC […] assessed as bacterial growth inhibition by alamar blue assay. It counts as functional.
The subject of test [16] is Nakaseomyces glabratus. Description: Synergistic antifungal activity against Candida glabrata assessed as fractional inhibitory concentration index in presence of fluconazole incubated for 18 hrs by checkerboard assay. It counts as functional.
Test [17] deals with Nakaseomyces glabratus. Description: Synergistic antifungal activity against Candida glabrata assessed as fractional inhibitory concentration index in presence of voriconazole incubated for 18 hrs by checkerboard assay. It counts as functional.
Test [18] deals with Nakaseomyces glabratus. Briefly: Synergistic antifungal activity against Candida glabrata assessed as fractional inhibitory concentration index in presence of amphotericin incubated for 18 hrs by checkerboard assay. Type of test: functional.
In test [19] the test system is Escherichia coli. Briefly: Antibacterial activity against Escherichia coli assessed as bacterial growth inhibition incubated for 24 hrs. Type of test: functional.
The subject of a further test is Plasmodium falciparum. Briefly: Antiplasmodial activity against Plasmodium falciparum. It counts as functional, organism-based.

Values after ≈ are worked out from the molar mass of the structure shown.

Take `CCCCCOc1ccc(-c2nc(N)[nH]c2C(F)(F)F)cc1`: the IC50 in [1] was below 10 µM.

As to `N=C(N)NCCCCCCCCN(CCCCCCCCNC(=N)NCC1CC1)C(=O)N(CCCCCCCCNC(=N)N)CCCCCCCCNC(=N)NCC1CC1`, the minimal inhibitory concentration (MIC) (with Escherichia coli [2]; in the test with Klebsiella pneumoniae; in the test on Pseudomonas aeruginosa; in the test with Acinetobacter baumannii; in [3]; in the test with Enterococcus faecalis) was 0.5 µg/mL (≈ 0.591 µM) in each case. Besides, the minimal inhibitory concentration (MIC) with Bacillus subtilis and in the test on Staphylococcus aureus [4] was 0.5 µg/mL (≈ 0.591 µM) each time.

Turning to `COc1ccc(C2C(C(C)=O)=C(C)Nc3nc(N)[nH]c(=O)c32)cc1OC` (stereo not given), the MIC in [5] stood at 1.95 µg/mL (≈ 5.47 µM).

On to `Cn1oc(=O)n(CCCCCCCCCCCCn2c(=O)on(C)c2=O)c1=N`, for which the 50% effective dose (ED50) in [6] turned out to be 4 mg/kg; in test [7], 82 mg/kg.

Consider `NNC(=O)c1ccncc1` [ISONIAZID], for which the minimum inhibitory concentration (MIC) in test [8] is 0.625 µg/mL (≈ 4.56 µM).

With `N=C(N)NCCNC(=O)[C@H](Cc1c[nH]c2ccccc12)NC(=O)c1cc(F)ccc1NC(=O)c1ccc2ccccc2c1`, in the test with Staphylococcus aureus [9], the MIC came out at 2 µM (≈ 1.16 µg/mL).

Take `Cl.N=C(N)NCCCNC(=O)C(=O)c1cc(Cl)ccc1NC(=O)c1ccc2ccccc2c1`: the MIC in the test with Staphylococcus aureus [10] was found to be 8 µg/mL.

Turning to `CCCCCCC(CCCCCC)NC(=O)CCCc1c[nH]c(N)n1`, the MIC in [11] and in test [12] was 0.039 µg/mL throughout.

`CCCCCCc1ccc(-c2nc(N)[nH]c2C(F)(F)F)cc1` gave an IC50 in [1] below 10 µM.

On to `Cl.NC(N)=N/N=C/c1ccc(Cl)c(Cl)c1`, for which the “fold change (FC)” value with Staphylococcus aureus [13] was “<=16”; in the test on Staphylococcus aureus [14], “<=32”.

With `Cc1nn(-c2ccccc2)c(Cl)c1-c1nc(N)nc2c1c(C)nn2-c1ccccc1Cl`, the MIC in test [15] worked out at 1.2 µg/mL (≈ 2.66 µM).

For the compound `CCCCCCc1ccc(-c2c[nH]c(N)n2)cc1`, the minimum inhibitory concentration (MIC) in test [11] and in test [12] was 0.039 µg/mL each time.

Turning to `CCCCNC(=N)NC(=N)N` [BUFORMIN], the “fractional inhibitory concentration index (FICI)” value in the test with Nakaseomyces glabratus [16], in the test on Nakaseomyces glabratus [17] and in the test with Nakaseomyces glabratus [18] was 0.5 in each case.

As for `COC(=O)C(CCCCNC(=N)N)NC(=O)C(=O)c1ccccc1NC(=O)c1ccc2ccccc2c1.Cl` (stereo not given), in the test on Escherichia coli [19], the MIC was determined as 17 µg/mL.

As for `Cl.N=C(N)NCCCNC(=O)C(=O)c1cc(Br)ccc1NC(=O)c1ccc2ccccc2c1`, the MIC with Staphylococcus aureus [10] stood at 6 µg/mL.

Consider `Cc1ccc(-n2nc(C)c3c(-c4c(C)nn(-c5ccccc5)c4Cl)nc(N)nc32)cc1`, for which, in test [15], the MIC amounted to 1.2 µg/mL (≈ 2.79 µM).

For `CCC/C=C\CCC[C@@H]1C2N=C(N)N[C@H]3CC[C@@H](C[C@H]1CCC)C23` (stereo not given in full), the IC50 in the test on Plasmodium falciparum was found to be 8.37 µM.
